BigSolDB 2.1

O=P1(O)Oc2ccc3ccccc3c2-c2c(ccc3ccccc23)O1
solubility (mole fraction)
Conditions | 288.15 K | 293.15 K | 298.15 K | 303.15 K | 308.15 K | 313.15 K | 318.15 K | 323.15 K | 328.15 K | 333.15 K
in ethanol | 0.00444 | 0.00462 | 0.00489 | 0.00511 | 0.00533 | 0.00544 | 0.00573 | 0.00601 | 0.00632 | 0.00664
in ethyl acetate | 0.000286 | 0.000331 | 0.000387 | 0.000434 | 0.000491 | 0.000521 | 0.000555 | 0.000594 | 0.000618 | 0.000645
in isobutanol | 0.0035 | 0.00381 | 0.0041 | 0.0045 | 0.00491 | 0.00531 | 0.00575 | 0.00622 | 0.00672 | 0.00738
in isopropanol | 0.00339 | 0.00354 | 0.0038 | 0.00404 | 0.00445 | 0.00491 | 0.00563 | 0.00656 | 0.00763 | 0.00891
in methanol | 0.00336 | 0.00347 | 0.00373 | 0.00411 | 0.00452 | 0.00486 | 0.0052 | 0.00555 | 0.00607 | 0.00658
in n-butanol | 0.00698 | 0.00709 | 0.0073 | 0.00763 | 0.00802 | 0.00844 | 0.00887 | 0.00932 | 0.00996 | 0.0107
in n-propanol | 0.00484 | 0.0053 | 0.00588 | 0.00652 | 0.00731 | 0.00832 | 0.00942 | 0.0106 | 0.0123 | 0.0142
